Assay results: paper PMC11519904, “Comprehensive Cell Biological Investigation of Cytochalasin B Derivatives with Distinct Activities on the Actin Network” (Journal of Natural Products, 2024)
Where “and” joins values, the source holds several entries; their conditions need not be identical. Equal entries are not always repeated. Entries after “also recorded” stand apart in the source; their conditions may differ. Where two headings read alike, the source gives them in different places.

Tests used:
L929 (mouse fibroblast) = test: Cytotoxicity assay (MTT), L929; assay type: cell-based; conditions: Mus musculus, L929, 120 h, read-out: IC50 L929
Experimental: (§1) The cytotoxicity assay was implemented in 96-well flat-bottom microtiter plates following a reported procedure.[21],[22],[33] The mammalian cell lines L929 (mouse fibroblast) and KB3.1 (human cervix carcinoma) were cultivated at 37 °C and 10% CO2 in Dulbecco’s modified minimum essential medium (DMEM, Life Technologies, Carlsbad, CA, USA) supplemented with 10% fetal bovine serum (FBS, Life Technologies). The microtiter plate was filled with 120 μL of suspended cells (50,000/mL), and 60 μL of a serial dilution of the test compound was added. After 5 days of incubation, growth inhibition (IC50) was determined by a colorimetric tetrazolium dye MTT assay.[34] The compounds were dissolved in MeOH (1 mg/mL), MeOH was used as negative control, and epothilone[35] (1 mg/mL) was used as positive control.

[1] = test system: KB3.1 (human cervix carcinoma); test: Cytotoxicity assay (MTT), KB3.1; assay type: cell-based; conditions: Homo sapiens, KB 3-1, 120 h, read-out: IC50 KB3.1
Experimental: as §1

[2] = test system: filamentous actin (F-actin) in U-2OS wild type (wt) cells; test: Actin disruption assay in U-2OS cells (phalloidin staining); assay type: cell-based, human; conditions: for effect on F-actin network, high dose 1 h: 5 x IC50 (L929), compared to control; for effect on actin and nuclei number, high dose 24 h: 5 x IC50, 24 h, differences between 1 and 24 h treatment
Experimental: For this, the human osteosarcoma cell line U-2OS was treated using concentrations estimated based on previously determined IC50 values in murine L929 fibroblasts (Table 1), referred to as low dose (1 × IC50), and a 5-fold concentration, referred to as high dose (5 × IC50). Reorganization of the F-actin network was also investigated upon high dose treatment, followed by washout and a 1 h recovery phase in fresh medium. The impact on F-actin network organization was visualized using fluorescently labeled phalloidin (Figure 2). […] In addition, the effects on F-actin structures observed upon high dose treatment of all compounds were fully reversible after a 1 h recovery time (Figure 2m–q).
The respective previously determined IC50 values in L929 were used to calculate the treatment concentration (1 × IC50: low dose; 5 × IC50: high dose).[37] DMSO was used as the vehicle control, corresponding to the highest compound volume used in the assay. Coverslips were coated with 25 μg/mL fibronectin (Roche, Mannheim, Germany) diluted 1:40 in phosphate buffered saline (PBS, pH 7.4, Life Technologies), and cells were seeded at a density of 20,000 cells and allowed to spread overnight. CO2-equilibrated culture medium was spiked with the desired compound and DMSO, respectively, in the above-mentioned concentration, and cells were treated with prepared medium for 1 h under cell culture conditions. For long-term experiments, the treatment phase was extended to 24 h. Cells were washed once and fixed afterward using 4% prewarmed paraformaldehyde (PFA) supplied in PBS for 20 min at 37 °C, followed by three additional washing steps with prewarmed PBS buffer. In addition, the reversibility of high dose effects on F-actin network organization was investigated by a washout procedure including three times prewarmed PBS wash steps prior to the addition of fresh medium and a recovery time of 1 h before fixation. In the case of 24 h treatments, the recovery phase was extended to 47 h. Cells were permeabilized with 0.1% Triton X-100 (Bio-Rad Laboratories, Hercules, CA, USA) in PBS buffer for 1 min at room temperature, washed three times with PBS, and stained for F-actin using ATTO-594-coupled phalloidin (ATTO-Tec, Siegen, Germany) diluted in PBS buffer (1:100) for 1 h at room temperature. Coverslips were washed thrice in PBS and mounted in ProLong Diamond antifade mountant (Invitrogen) containing DAPI to probe for nuclear DNA. Cells were recorded using an inverted microscope (Nikon Eclipse Ti2, Tokyo, Japan) equipped with a 60 times Nikon oil immersion objective (Plan Apofluar, 1.4 NA), a pE-4000 (CoolLED, Andover, UK) as light source, and a pco.edge back-illuminated sCMOS camera (Excelitas Technologies, Mississauga, ON, Canada). The microscopy system was operated by and images were recorded with NIS (Nikon) and processed with ImageJ (NIH, Bethesda, MD, USA).

[3] = target: T1, actin (G-actin purified from rabbit skeletal muscle) (Oryctolagus cuniculus, UniProt P68135); test: Pyrene actin polymerization assay; assay type: biochemical; conditions: 2 μM compound, 2 μM actin (5% pyrene-actin), 550 nM actin seeds, after 30 min; control = 100%
T1 construct: 1.5 kg of fresh rabbit skeletal muscle was minced with a meat grinder; from tissue; host or cells: rabbit skeletal muscle (acetone powder)
From the text: To rule out that the reduced in cellulo efficacies of 3–5 could instead be explained by an altered membrane permeability of modified compounds or their differential effects on other intracellular factors, pyrene actin polymerization assays[23] were used to analyze potential effects on actin assembly in vitro under defined conditions. Globular actin (G-actin) was purified from rabbit skeletal muscle[24] and fluorescently labeled with pyrene (see description in the Supporting Information). G-actin (2 μM) supplemented with 5% pyrene-labeled actin was added to actin seeds and the respective compound (2 μM) in polymerization buffer to initiate the reaction. Actin polymerization was then assessed by reading out the increasing pyrene fluorescence signal over time (Figure 3).
Acetone powder and G-actin were prepared as described previously.[24] Briefly, 1.5 kg of fresh rabbit skeletal muscle was minced with a meat grinder. Subsequently, the meat was stirred for 15 min in 2.5 L of high-salt buffer (0.5 M KCl, 0.1 M K2HPO4, 2 mM benzamidine, pH 6.4) and then pelleted at 4000g for 10 min. The supernatant was discarded, and the pellet was extracted once more with high-salt buffer and then washed twice with ice-cold ddH2O adjusting the slurry with 1 M Na2CO3 to pH 8.3 until a slight swelling of the pellet became visible. The pellet was then resuspended in ice-cold acetone, stirred for 15 min, and then centrifuged for 10 min at 4000g. The supernatant was discarded, and the pellet was washed once more with acetone before the pellet was broken up and dried in small pieces on aluminum foil under a fume hood overnight. The dried acetone powder was stored at −80 °C for further use.
For purification of G-actin, 5 g of the acetone powder was extracted five times with 50 mL of G-buffer containing 2 mM Tris-HCl, pH 8.0, 0.2 mM CaCl2, 0.5 mM DTT, 0.2 mM Na2ATP, and 0.1 mg/mL NaN3. After each step, the solution was filtered through a fine gauze, yielding a total volume of 250 mL. Subsequently, the solution was centrifuged for 30 min at 20,000g at 4 °C. Actin in the supernatant was then polymerized by addition of 25 × polymerization buffer (250 mM Tris-HCl pH 8.0, 1250 mM KCl, 25 mM Na2ATP, 50 mM MgCl2 × 6 H2O) overnight. Subsequently, KCl was added to a final concentration of 750 mM, followed by centrifugation of the solution at 150,000g at 4 °C for 3 h. The F-actin pellet was then homogenized with 25 mL of G-actin buffer using a potter and then dialyzed against G-buffer. After a final centrifugation step at 150,000g at 4 °C for 3 h, G-actin was purified by size exclusion chromatography using a HiLoad 26/75 Superdex 200 column. Actin concentrations were determined by measuring the absorbance at 290 nm and using an extinction coefficient of 26,600 M^–1 cm^–1.
For pyrene labeling, 10–20 mL of G-actin solution were dialyzed against labeling buffer following the procedure described by Doolittle et al.[38] […]
Pyrene assays were conducted to assess the inhibitory properties of cytochalasins on actin polymerization under defined conditions in vitro using G-actin and actin seeds. The degree of labeling was determined; EC290 nm actin: 26600 1/M × cm; EC342 nm pyrene: 31091 1/M × cm. […]

[4] = test system: glucose carrier in human erythrocytes; conditions: human erythrocytes ref 29, 30; cited from earlier work
[5] = test system: human potassium channel hKv1.5; design: method as in PMID 15800051; conditions: cited from earlier work
[6] = 5 days of incubation, MTT, NC: no cytotoxic effect, or only weak inhibition of proliferation

Structure (SMILES)	IC50 (L929 (mouse fibroblast)) [nM]	IC50 [1] [nM]	IC50 (L929 (mouse fibroblast); [6]) [nM]	effect on F-actin network, high dose 1 h ([2]; 1 h)	effect on actin and nuclei number, high dose 24 h [2]	relative actin polymerization rate [3]	effect on F-actin network, low dose ([2]; 1 x IC50 (L929), 1 h)	inhibition of glucose transport [4]	inhibitory activity on hKv1.5 [5]
C/C(=C\c1csc(C)n1)[C@@H]1C[C@@H]2O[C@]2(C)CCC[C@H](C)[C@H](O)[C@@H](C)C(=O)C(C)(C)[C@@H](O)CC(=O)O1 [Epothilone B, reference compound]	0.58	0.095							
C=C1[C@@H](C)[C@H]2[C@H](Cc3ccccc3)N(C)C(=O)[C@]23OC(=O)/C=C/[C@H](O)CCC[C@@H](C)C/C=C/[C@H]3[C@@H]1O [Compound 4, N-methyl cytochalasin B]			> 10000	only slight; also recorded: moderate effects	caused multinucleation, but left the actin network largely unchanged	83% and 84–86% and 84%			
C=C1[C@@H](C)[C@H]2[C@H](Cc3ccccc3)NC(=O)[C@]23OC(=O)/C=C/[C@H](O)CCC[C@@H](C)C/C=C/[C@H]3[C@@H]1O [Compound 2, cytochalasin B]			1300	complete collapse of the F-actin network; also recorded: actin disruption	+ multinucleation; also recorded: formation of multinucleated cells	45%	partially led to compromised lamellipodia and a reduction of intermittent, cytoplasmic F-actin	inhibits glucose transport	inhibitory activity
